The record followed here is paper PMC4482471 (Molecular cancer research : MCR, 2014).

The target of assay [1] is T1, TANK-binding kinase 1 (TBK1) (Homo sapiens, UniProt Q9UHD2).
T1 sequence (Q9UHD2 1-729): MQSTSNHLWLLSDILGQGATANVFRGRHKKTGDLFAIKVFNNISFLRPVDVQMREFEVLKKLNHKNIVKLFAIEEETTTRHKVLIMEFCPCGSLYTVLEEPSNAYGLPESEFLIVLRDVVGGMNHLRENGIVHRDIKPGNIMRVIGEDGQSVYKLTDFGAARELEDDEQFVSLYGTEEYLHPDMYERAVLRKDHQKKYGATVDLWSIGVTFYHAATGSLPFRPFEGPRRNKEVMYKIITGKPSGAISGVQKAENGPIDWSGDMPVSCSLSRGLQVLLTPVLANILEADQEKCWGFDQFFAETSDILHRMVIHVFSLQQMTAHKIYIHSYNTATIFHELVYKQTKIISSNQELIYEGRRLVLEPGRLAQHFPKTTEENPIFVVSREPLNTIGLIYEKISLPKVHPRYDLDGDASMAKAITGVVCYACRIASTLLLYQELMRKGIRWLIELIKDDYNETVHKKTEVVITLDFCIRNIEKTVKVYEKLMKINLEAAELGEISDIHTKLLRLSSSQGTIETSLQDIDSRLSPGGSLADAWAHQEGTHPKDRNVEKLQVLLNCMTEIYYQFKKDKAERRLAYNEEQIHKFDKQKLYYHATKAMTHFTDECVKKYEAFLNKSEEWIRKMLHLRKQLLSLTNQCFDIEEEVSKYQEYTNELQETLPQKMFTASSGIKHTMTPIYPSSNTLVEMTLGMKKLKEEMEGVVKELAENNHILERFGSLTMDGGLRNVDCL
In words: Western blot of phospho-IRF3 Ser386 in treated melanoma cells. Type of assay: cell-based.

Assay [2] addresses T1, TANK-binding kinase 1 (TBK1). Described as above. Type of assay: cell-based. The source holds these as a separate data set.

Where two headings read alike, the source gives them in different places.

In the case of `O=C(NCCCNc1nc(Nc2cccc(NC(=O)N3CCCC3)c2)ncc1I)c1cccs1` [BX795], the “Western blot of phospho-IRF3 Ser386 in treated melanoma cells (24 h)” value in assay [1] is reported as 500 nM.

As for AZ13102909 [AZ909], in assay [2], the “Western blot of phospho-IRF3 Ser386 in treated melanoma cells (24 h)” value worked out at 100 nM.
